In patent publication US8653125B2, “Cyclohexane derivative having NPY Y5 receptor antagonism” (Shionogi Co., Ltd., priority 2009, dated 2014) one finds IC50 data, which are given here for 23 molecules.

Sequence of mouse NPY Y5 receptor (O70342 whole entry): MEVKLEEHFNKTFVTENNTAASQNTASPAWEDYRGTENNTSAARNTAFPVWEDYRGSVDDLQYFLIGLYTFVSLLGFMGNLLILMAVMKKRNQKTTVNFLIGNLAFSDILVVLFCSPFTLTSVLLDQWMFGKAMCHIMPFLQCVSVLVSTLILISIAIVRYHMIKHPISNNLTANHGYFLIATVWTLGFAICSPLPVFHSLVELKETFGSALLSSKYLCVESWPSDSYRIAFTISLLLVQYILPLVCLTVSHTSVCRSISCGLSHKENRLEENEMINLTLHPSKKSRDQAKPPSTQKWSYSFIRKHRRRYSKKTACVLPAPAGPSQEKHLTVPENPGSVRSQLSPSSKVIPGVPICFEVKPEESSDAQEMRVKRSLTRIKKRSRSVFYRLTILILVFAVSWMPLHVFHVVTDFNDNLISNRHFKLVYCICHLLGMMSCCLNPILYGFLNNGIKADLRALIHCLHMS

In the assay the target is mouse NPY Y5 receptor (Mus musculus (Mouse), UniProt O70342). Kind of assay: Affinity for NPY Y5 receptor (Test Example 1-1), 125I peptide YY binding. The following applies: inhibition of 125I peptide YY binding to membranes of CHO cells expressing mouse NPY Y5 receptor. The text has this:
cDNA sequence encoding mouse NPY Y5 receptor (Biochem. Biophys. Acta 1328: 83-89, 1997) was cloned in the expression vector (pME18S, Takebe et al. Mol. Cell. Biol. 8, 466-472). The obtained expression vector was transfected into CHO cells as a host according to the instruction manual using Lipofectamine reagent (Trademark, Gibco BRL Co., Ltd.). The cells that stably express NPY Y5 receptor were obtained.
The membrane samples prepared from the CHO cells expressing NPY Y5 receptor, the compound of the invention and 30,000 cpm ^125I peptide YY (60 pM of final concentration: Amersham) were incubated in the assay buffer (20 mM HEPES-Hanks buffer containing 0.1% bovine serum albumin, pH 7.4) at 25° C. for 2 hours. The membrane samples were then filtered from the mixture through a glassfilter (GF/C) presoaked with 1% polyethyleneimine. After washing with 50 mM Tris-HCl buffer (pH 7.4), radioactivity retained on the filters was determined using gamma counter. Non-specific binding was determined in the presence of 200 nM of peptide YY and the 50% inhibitory concentration (IC50 value) of the test compound for specific peptide YY binding was calculated (Inui, A. et al. Endocrinology 131, 2090-2096 (1992)).
By IC50 is commonly meant the concentration that gives 50% inhibition. The molecule `CC(C)n1c(=O)oc2cc(NC(=O)[C@H]3CC[C@@H](NC(=O)c4ccccc4)CC3)ccc21` [Ia-15] came in with an IC50 of 4.5 nM.
With `O=C(Nc1ccn(-c2ccccc2F)n1)[C@H]1CC[C@@H](Oc2cc(Cl)ccn2)CC1` [Ic-17], the IC50 is 0.69 nM.
Next, `O=C(N[C@H]1CC[C@@H](c2nc(-c3ccc(Cl)c(Cl)c3)c[nH]2)CC1)c1ccon1` [Ia-40]: 0.26 nM.
Next, `O=C(Nc1ccn(-c2ccccc2F)n1)[C@H]1CC[C@@H](N2c3ccccc3OS2(=O)=O)CC1` [Id-8]: 0.58 nM.
As for `C[C@@H]1CN(c2ccc(NC(=O)[C@H]3CC[C@@H](Oc4cc(Cl)ccc4C#N)CC3)cc2)C[C@H](C)O1` [Ic-12], the IC50 was 1.1 nM.
Next, `CC(C)n1c(=O)oc2cc(NC(=O)[C@H]3CC[C@@H](Oc4cc(C(F)(F)F)ccn4)CC3)ccc21` [Ic-16]: 0.41 nM.
Regarding `CC(C)n1c(=O)oc2cc(NC(=O)[C@H]3CC[C@@H](Oc4cc(C(F)(F)F)ccc4C#N)CC3)ccc21` [Ic-14], the IC50 was found to be 0.68 nM.
Regarding `C[C@@H]1CN(c2ccc(NC(=O)[C@H]3CC[C@@H](Oc4cc(C(F)(F)F)ccc4C#N)CC3)cc2)C[C@H](C)O1` [Ic-11], the IC50 came out at 1.8 nM.
The molecule `N#Cc1ccccc1C(=O)N[C@H]1CC[C@@H](C(=O)Nc2ccn(-c3ccccc3F)n2)CC1` [Ia-24] registered an IC50 of 2.9 nM.
Molecule `O=C(N[C@H]1CC[C@@H](c2nc(-c3cccc(C(F)(F)F)c3)c[nH]2)CC1)c1ccon1` [Ia-43] returned an IC50 of 1.8 nM.
`O=C(N[C@H]1CC[C@@H](c2nc(-c3cccc(Cl)c3)c[nH]2)CC1)c1ccon1` [Ia-42] displayed an IC50 of 3 nM.
Consider `CC(C)n1c(=O)oc2cc(NC(=O)[C@H]3CC[C@@H](NC(=O)c4ccon4)CC3)ccc21` [Ia-32], for which the IC50 turned out to be 3.3 nM.
For `N#Cc1ccccc1O[C@H]1CC[C@@H](C(=O)Nc2ccc(OC(F)F)cc2)CC1` [Ic-8], the half-maximal inhibitory concentration (IC50) came out at 2.3 nM.
As to `O=C(N[C@H]1CC[C@@H](C(=O)Nc2ccc(-c3ccccc3F)cc2)CC1)c1ccon1` [Ia-30], the IC50 worked out at 0.71 nM.
Take `O=C(N[C@H]1CC[C@@H](C(=O)Nc2cccc(-c3ccccc3F)c2)CC1)c1ccon1` [Ia-28]: the IC50 was 4.1 nM.
With `O=C(N[C@H]1CC[C@@H](C(=O)Nc2ccn(-c3ccccc3F)n2)CC1)c1cccc(Cl)n1` [Ia-4], the IC50 was 3.8 nM.
The molecule `C[C@@H]1CN(c2ccc(NC(=O)[C@H]3CC[C@@H](Oc4cc(Cl)ccn4)CC3)cc2)C[C@H](C)O1` [Ic-5] returned an IC50 of 1.5 nM.
`CC(C)n1c(=O)oc2cc(NC(=O)[C@H]3CC[C@@H](Oc4cc(Cl)ccc4C#N)CC3)ccc21` [Ic-13] gave an IC50 of 0.56 nM.
As for `O=C(N[C@H]1CC[C@@H](C(=O)Nc2ccc(-c3ccccc3)cc2)CC1)c1ccon1` [Ia-35], the IC50 came to 0.65 nM.
In the case of `CC(C)n1c(=O)oc2cc(NC(=O)[C@H]3CC[C@@H](Nc4cccc(F)n4)CC3)ccc21` [Ib-4], the IC50 is 1.5 nM.
In the case of `O=C(N[C@H]1CC[C@@H](C(=O)Nc2ccn(-c3ccccc3F)n2)CC1)c1cccc(F)n1` [Ia-2], the IC50 is 1.6 nM.
`O=C(Nc1ccn(-c2ccccc2F)n1)[C@H]1CC[C@@H](Nc2cccc(F)n2)CC1` [Ib-1] returned an IC50 of 2.9 nM.
`O=C(N[C@H]1CC[C@@H](C(=O)Nc2cccc(-c3ccccc3F)c2)CC1)c1ccccc1` [Ia-14] registered an IC50 of 4.1 nM.
